{"source": "paper PMC10455244", "about": "“Alpha-Mangostin: A Potent Inhibitor of TRPV3 and Pro-Inflammatory Cytokine Secretion in Keratinocytes” (International Journal of Molecular Sciences, 2023)", "key": {"[1]": {"target": "T1, TRPV3 (Homo sapiens, UniProt Q8NET8)", "T1 sequence (Q8NET8 1-790)": "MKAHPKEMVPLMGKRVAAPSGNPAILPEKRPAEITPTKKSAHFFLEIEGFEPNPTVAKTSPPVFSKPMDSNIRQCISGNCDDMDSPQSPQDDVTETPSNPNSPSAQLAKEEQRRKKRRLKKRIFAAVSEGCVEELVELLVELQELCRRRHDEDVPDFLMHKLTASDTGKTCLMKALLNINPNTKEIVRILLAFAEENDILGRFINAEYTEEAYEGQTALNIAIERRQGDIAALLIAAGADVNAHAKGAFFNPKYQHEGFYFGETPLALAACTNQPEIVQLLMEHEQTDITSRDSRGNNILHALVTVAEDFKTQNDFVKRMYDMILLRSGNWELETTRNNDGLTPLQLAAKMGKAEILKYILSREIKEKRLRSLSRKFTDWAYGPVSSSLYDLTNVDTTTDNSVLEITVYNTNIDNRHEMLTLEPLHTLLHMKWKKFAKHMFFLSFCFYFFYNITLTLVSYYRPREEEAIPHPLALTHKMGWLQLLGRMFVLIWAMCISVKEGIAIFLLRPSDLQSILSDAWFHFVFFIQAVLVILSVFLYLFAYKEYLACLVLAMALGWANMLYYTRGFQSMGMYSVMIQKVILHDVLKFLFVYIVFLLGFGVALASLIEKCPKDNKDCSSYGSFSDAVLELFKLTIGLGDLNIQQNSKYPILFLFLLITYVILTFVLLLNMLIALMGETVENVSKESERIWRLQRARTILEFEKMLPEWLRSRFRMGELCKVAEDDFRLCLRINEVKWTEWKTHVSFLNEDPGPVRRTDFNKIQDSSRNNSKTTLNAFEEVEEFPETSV", "test": "Whole-cell patch-clamp, 2-APB-evoked TRPV3 current in normal human epidermal keratinocytes (NHEK)", "assay_type": "cell-based", "set-up": "host or cells: NHEK", "conditions": "100 µM 2-APB, −100 mV, read-out: TRPV3 current inhibited to (normalized to maximum 2-APB response)"}, "[2]": {"target": "T1, TRPV3", "test": "Fura-2 calcium imaging, carvacrol-induced Ca2+ increase in hTRPV3-overexpressing HEK 293T cells", "assay_type": "cell-based", "set-up": "expressed in transfected cells", "conditions": "300 µM carvacrol; for ∆(F340/F380): control 0.424 ± 0.032", "procedure": "Since the TRPV3-mediated calcium influx is reported to contribute to proper skin function, we investigated whether alpha-mangostin inhibits the intracellular calcium increase induced by carvacrol in hTRPV3-overexpressing HEK 293T cells and keratinocytes. […] In hTRPV3-overexpressing HEK 293T cells, ∆(F340/F380) decreased by approximately 25% and 70% upon exposure to 0.3 µM and 3 µM alpha-mangostin, respectively (Figure 3A, 0.424 ± 0.032 vs. 0.316 ± 0.030 and 0.144 ± 0.006, respectively).\nFigure 3 Alpha-mangostin (α-MG) inhibited TRPV3-mediated intracellular calcium increase. Cells were perfused with solutions containing 0.3 µM, 3 µM alpha-mangostin or 10 µM 74a before the addition of 300 µM carvacrol (red, green, and blue lines, respectively). Cells only perfused with normal Tyrode (NT) solution in the presence (black line) or absence (purple line) of 300 µM carvacrol were employed as the control. (A) Alpha-mangostin inhibited TRPV3-mediated intracellular calcium increase in response to carvacrol in TRPV3-overexpressing HEK 293T cells. […] The bar graph on the bottom summarizes the change in the intracellular calcium rise inhibited by alpha-mangostin. (B) Alpha-mangostin inhibited TRPV3-mediated intracellular calcium increase in response to carvacrol in normal human epidermal keratinocytes (NHEK). […] The bar graph on the bottom summarizes the change in the intracellular calcium rise inhibited by alpha-mangostin. Data are presented as means ± SEM. ** p < 0.01, *** p < 0.001, **** p < 0.0001.\nFura-2 AM (Thermo Fisher Scientific) was utilized as a fluorescent indicator to measure calcium signal, as described previously. Fura-2 acetoxymethyl ester (Fura-2 AM) is a widely used fluorescent calcium indicator. After crossing the cell membrane and entering the cytosol, Fura-2 AM is cleaved into its activated form, Fura-2 [49]. After binding to the cytosolic free Ca^2+, the peak excitation of Fura-2 shifts from 380 nm (Ca^2+-free state) to 340 nm (Ca^2+-bound state), while the peak emission remains unchanged at around 510 nm. To measure the cytosolic Ca^2+ level, a sequential excitation of Fura-2 is performed at 340 nm and 380 nm; then, the emission signals resulting from each excitation wavelength are measured and the ratio of these signals is calculated. […] Samples were excited using a wavelength of 380 nm for 20 ms, followed by 340 nm for 100 ms, and fluorescence at 510 nm was recorded. Recorded data were then analyzed using NIS-Element AR Version 5.00.00 (Nikon Instruments, Melville, NY, USA).\nThe change in the fluorescence ratio when the cells were excited at 340 nm and 380 nm (ΔF340/380) during the measurements was calculated by subtracting the ratio obtained at the beginning of the experiment from each subsequent ratio obtained at different time points. […]"}}, "data": [{"smiles": "COc1c(O)cc2oc3cc(O)c(CC=C(C)C)c(O)c3c(=O)c2c1CC=C(C)C", "note": "[Alpha-mangostin]", "values": [{"measurement": "activity at 0.3 µM", "setting": "[1]; 0.3 µM", "value": 75.1, "unit": "%"}, {"measurement": "activity at 3 µM", "setting": "[1]; 3 µM", "value": 27, "unit": "%"}, {"measurement": "Decrease of ∆(F340/F380)", "setting": "[2]; 0.3 µM", "value": "approximately 25%"}, {"measurement": "∆(F340/F380)", "setting": "[2]; 0.3 µM", "value": "0.316 ± 0.030"}, {"measurement": "Decrease of ∆(F340/F380)", "setting": "[2]; 3 µM", "value": "~70", "unit": "%"}, {"measurement": "∆(F340/F380)", "setting": "[2]; 3 µM", "value": "0.144 ± 0.006"}]}]}
